Data on eight compounds can be found in PMC10341549, “Inhibitory Investigations of Acyl-CoA Derivatives against Human Lipoxygenase Isozymes” (International Journal of Molecular Sciences, 2023).

Molecules are shown by their SMILES. Where two headings read alike, the source gives them in different places.

One assay addresses T1, h12-LOX (Homo sapiens, UniProt P18054).
T1 construct: His tag; made in house
T1 sequence (P18054 1-663): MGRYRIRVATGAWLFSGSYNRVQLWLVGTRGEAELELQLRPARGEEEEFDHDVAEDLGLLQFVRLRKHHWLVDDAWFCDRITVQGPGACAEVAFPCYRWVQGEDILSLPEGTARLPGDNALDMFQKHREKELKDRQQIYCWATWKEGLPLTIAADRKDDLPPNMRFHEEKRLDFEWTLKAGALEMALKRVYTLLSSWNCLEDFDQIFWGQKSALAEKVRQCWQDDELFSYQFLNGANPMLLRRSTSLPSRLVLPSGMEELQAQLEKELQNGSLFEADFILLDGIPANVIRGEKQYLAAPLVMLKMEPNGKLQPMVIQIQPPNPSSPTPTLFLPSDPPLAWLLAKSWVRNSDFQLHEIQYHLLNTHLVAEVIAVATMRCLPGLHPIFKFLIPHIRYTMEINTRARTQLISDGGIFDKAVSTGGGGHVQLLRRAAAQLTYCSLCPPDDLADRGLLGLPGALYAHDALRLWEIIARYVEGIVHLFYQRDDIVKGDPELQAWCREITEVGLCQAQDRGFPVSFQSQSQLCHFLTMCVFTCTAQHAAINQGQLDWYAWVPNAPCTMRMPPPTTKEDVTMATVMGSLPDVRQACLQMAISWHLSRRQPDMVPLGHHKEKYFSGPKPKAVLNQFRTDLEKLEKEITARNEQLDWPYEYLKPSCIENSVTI
Set-up: method as in PMID 37506345. Conditions: 10 μM AA, 25 mM HEPES pH 8.00, 0.01% Triton X-100, 22 °C, published previously, ref [30], cited from earlier work.

The next assay concerns the target T2, h15-LOX-2 (Homo sapiens, UniProt O15296).
T2 construct: His tag; made in house
T2 sequence (O15296 1-676): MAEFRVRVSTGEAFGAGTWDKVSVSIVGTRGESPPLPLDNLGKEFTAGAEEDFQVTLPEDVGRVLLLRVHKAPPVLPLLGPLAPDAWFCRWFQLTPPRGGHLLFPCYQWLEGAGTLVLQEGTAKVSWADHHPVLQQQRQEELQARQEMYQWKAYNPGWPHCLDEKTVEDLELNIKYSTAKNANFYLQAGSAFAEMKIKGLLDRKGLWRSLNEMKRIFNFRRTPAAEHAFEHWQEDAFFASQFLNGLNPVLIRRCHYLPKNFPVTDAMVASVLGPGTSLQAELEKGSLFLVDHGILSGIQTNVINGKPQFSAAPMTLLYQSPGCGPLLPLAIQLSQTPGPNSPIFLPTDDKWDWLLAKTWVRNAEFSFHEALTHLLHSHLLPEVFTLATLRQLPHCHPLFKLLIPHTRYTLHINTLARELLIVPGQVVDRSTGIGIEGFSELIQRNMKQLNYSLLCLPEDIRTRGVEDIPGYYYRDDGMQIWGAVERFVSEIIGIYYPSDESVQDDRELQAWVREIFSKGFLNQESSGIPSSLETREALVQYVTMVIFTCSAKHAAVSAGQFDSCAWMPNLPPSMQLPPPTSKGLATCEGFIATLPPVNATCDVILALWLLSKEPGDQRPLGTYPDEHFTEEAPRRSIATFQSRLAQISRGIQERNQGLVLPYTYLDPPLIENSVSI
Briefly: IC50 determination against h15-LOX-2. The class given is biochemical. To be noted: 10 μM AA, 25 mM HEPES pH 7.5, 0.01% Triton X-100, 22 °C. As for the experimental part: Overexpression and purification of his-tagged wild-type h12-LOX (Uniprot entry P18054), h15-LOX-1 (Uniprot entry P16050), and h15-LOX-2 (Uniprot entry O15296) were performed using nickel-affinity chromatography. The purity of h12-LOX, h15-LOX-1, and h15-LOX-2 was assessed using SDS gel as greater than 85%, and metal content was assessed with a Finnigan inductively coupled plasma mass spectrometer (ICP-MS, Thermo Fischer Scientific, San Jose, USA) via comparison with iron standard solution. Cobalt-EDTA was used as an internal standard. WT h5-LOX (UniProt entry P09917) was expressed in Rosetta 2 cells (Novagen) transformed with the pET14b-Stable-5-LOX plasmid (a gift from Marcia Newcomer of Louisiana State University) and grown in Terrific Broth containing 34 μg/mL chloramphenicol and 100 μg/mL ampicillin at 37 °C for 3.5 h, then placed at 20 °C for an additional 26 h. Cells were pelleted and resuspended in 50 mM Tris (pH 8.0), 500 mM NaCl, 20 mM imidazole with 1 μM pepstatin, 100 μM PMSF, and DNaseI (Sigma, Kanagawa, Japan). The cells were lysed in a French pressure cell and centrifuged at 40,000× g for 20 min at 4 °C. Saturated ammonium sulfate was added to achieve a final solution of 10% and inverted several times. The lysate was centrifuged at 40,000× g for 10 min at 4 °C. The pellet was discarded, and the supernatant was increased to a final concentration of 50% ammonium sulfate. The supernatant was rotated for 10 min at 4 °C then centrifuged at 40,000× g for 10 min at 4 °C. The pellet was split into 150 mg aliquots. The WT h5-LOX used for the kinetics in this work was not purified due to a dramatic loss in activity and was therefore prepared as an ammonium-sulfate precipitate.
IC50 values for each acyl-CoA were measured against h5-LOX, h12-LOX, h15-LOX-1, and h15-LOX-2. The reactions were carried out in 25 mM HEPES buffer (pH 8.00), 0.01% Triton X-100, and 10 μM AA for h12-LOX; 25 mM HEPES buffer (pH 7.5), 0.01% Triton X-100, and 10 μM AA for h15-LOX-1 and h15-LOX-2; and 50 mM HEPES buffer (pH 7.5), 100 µM EDTA, 50 mM NaCl, 200 µM ATP, and 10 μM AA for h5-LOX. IC50 reactions were implemented with h15-LOX-1 (0.125 μM), h12-LOX (0.300 μM), h15-LOX-2 (0.5 μM), and h5-LOX (∼600 nM ammonium sulfate salt) at 22 °C in a 1 cm^2 quartz cuvette containing 2 mL of the according buffer and 10 μM AA for no longer than 2 min to avoid any cleavage of the acyl-coenzyme A. Inhibitor concentrations ranging from 50 μM to 0.01 μM were used. All reactions were conducted using a Cary-UV Vis spectrophotometer (Agilent, Santa Clara, CA, USA). The fastest rates over 15 s intervals were recorded. IC50 values were obtained by determining the percent of inhibition of the enzymatic rate at ten inhibitor concentrations and plotting the rate against the inhibitor concentration, followed by a hyperbolic saturation curve fit. The saturation curve fits were performed in duplicate or triplicate, depending on the quality of the data. […] Through HPLC monitoring, we were able to determine a lack of degradation of the fatty acyl-CoAs over the first hour.

[1] abbreviates: listed as palmitoleoyl-CoA (16:1).

Consider `CCCCC/C=C\C/C=C\C/C=C\C/C=C\CCCC(=O)SCCNC(=O)CCNC(=O)[C@H](O)C(C)(C)COP(=O)(O)OP(=O)(O)OC[C@H]1O[C@@H](n2cnc3c(N)ncnc32)[C@H](O)[C@@H]1OP(=O)(O)O` [Arachidonoyl-CoA (20:4), arachidonoyl-coenzyme A (20:4)], for which the results for the IC50 on h12-LOX, against h15-LOX-2 and at h15-LOX-2 (listed as arachidonoyl-CoA (20:4)) were 110 ± 20 µM, greater than 500 µM and greater than 100 µM, respectively.
`CC/C=C\C/C=C\C/C=C\C/C=C\C/C=C\C/C=C\CCC(=O)SCCNC(=O)CCNC(=O)C(O)C(C)(C)COP(=O)(O)OP(=O)(O)OC[C@H]1O[C@@H](n2cnc3c(N)ncnc32)[C@H](O)[C@@H]1OP(=O)(O)O` (stereo partly shown) [Docosahexaenoyl CoA (22:6), docosahexaenoyl-coenzyme A (22:6)]: the figures for the IC50 on h12-LOX, on h12-LOX (listed as docosahexaenoyl-CoA (22:6)) and on h15-LOX-2 were greater than 500 µM, greater than 200 µM and greater than 500 µM, respectively.
As to `CCCCC/C=C\C/C=C\CCCCCCCC(=O)SCCNC(=O)CCNC(=O)[C@H](O)C(C)(C)COP(=O)(O)OP(=O)(O)OC[C@H]1O[C@@H](n2cnc3c(N)ncnc32)[C@H](O)[C@@H]1OP(=O)(O)O` [Linoleoyl-CoA (18:2), linoleoyl-CoA], the results for the IC50 at h12-LOX and against h15-LOX-2 were greater than 200 µM and greater than 100 µM, respectively.
Take `CCCCCCCC/C=C\CCCCCCCC(=O)SCCNC(=O)CCNC(=O)[C@H](O)C(C)(C)COP(=O)(O)OP(=O)(O)OC[C@H]1O[C@@H](n2cnc3c(N)ncnc32)[C@H](O)[C@@H]1OP(=O)(O)O` [Oleoyl-CoA (18:1), oleoyl-coenzyme A (18:1)]: the results for the IC50 at h12-LOX and at h15-LOX-2 were 32 ± 4 µM and 0.62 ± 0.06 µM, respectively.
Turning to `CCCCCC/C=C\CCCCCCCC(=O)SCCNC(=O)CCNC(=O)[C@H](O)C(C)(C)COP(=O)(O)OP(=O)(O)OC[C@H]1O[C@@H](n2cnc3c(N)ncnc32)[C@H](O)[C@@H]1OP(=O)(O)O` [Palmitoleoyl-CoA (16:1), palmitoleoyl-coenzyme A (16:1)], the IC50 at h12-LOX was greater than 500 µM; on h12-LOX (setting [1]) it was greater than 200 µM; on h15-LOX-2, greater than 200 µM; at h15-LOX-2 (setting [1]), greater than 100 µM.
For `CCCCCCCCCCCCCCCC(=O)SCCNC(=O)CCNC(=O)[C@H](O)C(C)(C)COP(=O)(O)OP(=O)(O)OC[C@H]1O[C@@H](n2cnc3c(N)ncnc32)[C@H](O)[C@@H]1OP(=O)(O)O` [Palmitoyl-CoA (16:0), palmitoyl-coenzyme A (16:0)], the IC50 is greater than 200 µM on h12-LOX, greater than 200 µM on h15-LOX-2 and greater than 100 µM against h15-LOX-2 (listed as palmitoyl-CoA (16:0)).
As to `CCCCCCCCCCCCCCCCCC(=O)SCCNC(=O)CCNC(=O)[C@H](O)C(C)(C)COP(=O)(O)OP(=O)(O)OC[C@H]1O[C@@H](n2cnc3c(N)ncnc32)[C@H](O)[C@@H]1OP(=O)(O)O` [Stearoyl-CoA (18:0), stearoyl-coenzyme A (18:0)], the values for the IC50 on h12-LOX and on h15-LOX-2 were greater than 200 µM and 7.6 ± 1 µM, respectively.
For the compound `CCCCC/C=C\C/C=C\C/C=C\CCCCC(=O)SCCNC(=O)CCNC(=O)[C@H](O)C(C)(C)COP(=O)(O)OP(=O)(O)OC[C@H]1O[C@@H](n2cnc3c(N)ncnc32)[C@H](O)[C@@H]1OP(=O)(O)O` [ɣ-Linolenoyl-CoA (18:3), ɣ-linolenoyl-coenzyme A (18:3)], the IC50 at h12-LOX was greater than 200 µM; against h15-LOX-2 it was greater than 500 µM; against h15-LOX-2 (listed as ɣ-linolenoyl-CoA (18:3)) it was greater than 100 µM.
